Measurements as given in patent publication EP0265388A1, “Pyrrole derivatives, therapeutic compositions containing them and their use” (CIBA-GEIGY AG, priority 1986, dated 1988).

Tests used:
[1] = test system: präsynaptischen Serotonin-1 B-Rezeptors (5-HTIB); test: Antagonism at the presynaptic serotonin 1B receptor; details: for Selektivität (5-HT1B gegenüber 5-HT1A): compared with the racemate
[2] = Geller test (foot-shock induced conflict, lever pressing for food); type: in vivo, Ratten; details: for anxiolytische Wirkung im Geller-Test: overall assessment
Excerpt: Das charakteristische anxiolytische Profil von (+)-1-Isopropylamino-3-[o-(pyrrol-1-yl)-phenoxy]-2-propanol ergibt sich beispielsweise aus den Ergebnissen des Geller-Testes, [J. Geller. Psychopharmacologia, 3, S. 374 ff. […] Bei diesem Test werden die Füsse der Verscuchstiere beim Bedienen eines Hebels zur Nahrungsfreigabe periodisch Elektroschocks ausgesetzt. Normalerweise wird nur bei Verabreichung von hohen Dosen an Anxiolytika die Reaktion auf die Bestrafung unterdrückt. Bei einer Gruppe von Ratten, die eine Dosis ab 3 mg/kg p.o. von (+)-1-lsopropylamino-3-[o-(pyrrol-1-yl)-phenoxy]-2-propanol erhalten haben, reagieren bereits ab etwa 80 % der Versuchstiere mit einem markanten Anstieg der Hebelbedienungshäufigkeit während der Schockphase.
Bei einer Gruppe von 29 Ratten, die eine Dosis von 20 mg/kg p.o. von 1-lsopropylamino-3-[o-(pyrrol-1-yl)-phenoxy]-2-propanol erhalten haben, reagieren bereits 50 % der Versuchstiere mit einem markanten Anstieg der Hebelbedienungshäufigkeit während der Schockphase, wobei der Anstieg bei einzelnen Tieren 300 % betrug.

[3] = Inhibition of hyperactivity of rats kept in isolation (locomotor and exploratory behaviour, after Weinstock); type: in vivo, Ratten; details: isolated rats
Description: Das charakterische anxiolytische Profil von 1-Isopropylamino-3-[o-(pyrrol-1-yl)-phenoxyj-2-propanol ergibt sich beispielsweise aus der Hemmung der Hyperaktivität von Ratten, die in Isolation gehalten werden, gemessen an ihrem lokomotorischen und exploratorischen Verhalten, wobei maximale Effekte bei einer Dosierung von 0,01-0,1 mg/kg p.o. erzielt werden [analog der Methodik von R. Weinstock et al., Psychopharmacologia 30, 241ff. (1973). Die Hyperaktivität von isoliert gehaltenen Ratten konnte dagegen im Falle des Propranolols erste bei einer Dosis von 0,3 mg/kg p.o. maximal gehemmt werden.

[4] = Three-centre double-blind study in inpatients; type: in vivo, Menschen
Excerpt: Ueberraschend ist also die Tatsache, dass das anxiolytische Profil dieses Wirkstoffs auch bei nicht-betarezeptorenblockierend wirkenden Dosierungen sowohl im Tiermodell als auch am Menschen überaus ausgeprägt ist. Letzteres bestätigen Untersuchungen an stationären Patienten.
Entsprechendes ist bei der Verwendung des (+)-Enantiomeren zu erwarten.

[5] = Delayed-Matching-to-Sample test after Harlow, double-blind against placebo; type: in vivo, Rhesusaffen
Excerpt: In Testmodellen an Rhesusaffen sowie an Ratten konnten weiterhin eine zusätzliche nootrope und antidepressive Wirkungskomponente festgestellt werden. […] F. Harlow et al., J. Comp. Physiol. Psychol. […] Dieser bedeutet diejenige Zeitverzögerung in Sekunden, nach der ein Affe einen Diskriminationserfolg von < 75 % hat. Weiterhin konnten die Vorzögerungszeiten für den Defizitbereich um durchschnittlich 20 Sekunden erhöht werden. Neben diesen nootropen Effekten konnten In diesem Test auch antidepressive Eigenschaften beobachtet werden. […] Die nootrope bzw. antidepressive Wirkungskomponente konnten ebenfalls bei Untersuchungen mit Ratten manifestiert werden. So wurden in einem komplizierten Tieflabyrinth analog dem Modell von J.B. Watson, Animal Education, Contrib. Psychol. Lab. Univ.

[6] = Complicated deep maze after Watson; type: in vivo, Ratten
Excerpt: In Testmodellen an Rhesusaffen sowie an Ratten konnten weiterhin eine zusätzliche nootrope und antidepressive Wirkungskomponente festgestellt werden. So bewirkte (+)-1-isopropylamino-3-[o-(pyrrol-1-yl)-phenoxy]-2-propanol in einer Doppelblindstudie bei Rhesusaffen gegen Placebo im "Delayed-Matchingto-Sample-Test" (Zeit-verzögerte-Wahl-nach-Muster) gemäss der Methodik von H. F. Harlow et al., J. Comp. Physiol. Psychol. […] Dieser bedeutet diejenige Zeitverzögerung in Sekunden, nach der ein Affe einen Diskriminationserfolg von < 75 % hat. Weiterhin konnten die Vorzögerungszeiten für den Defizitbereich um durchschnittlich 20 Sekunden erhöht werden. Neben diesen nootropen Effekten konnten In diesem Test auch antidepressive Eigenschaften beobachtet werden. […] Die nootrope bzw. antidepressive Wirkungskomponente konnten ebenfalls bei Untersuchungen mit Ratten manifestiert werden. So wurden in einem komplizierten Tieflabyrinth analog dem Modell von J.B. Watson, Animal Education, Contrib. Psychol. Lab. Univ.

[7] = Social conflict test after Jaekel (rank hierarchy); type: in vivo, Rhesusaffen
Excerpt: Insbesondere konnten signifikante anxiolytische Effekte bei Verabreichung des Wirkstoffs in sozialen Konfliktsituationen bei Rhesusaffen festgestellt werden. Die experimentalle Grundlage für diesen Sozialkonflikt-Test analog J. Jaekel in Biologische Psychiatrie (Forschungsergebnisse), W. Kemp (Hrsg.), Springer Verlag, Heidelberg, 1986, ist die hierarchische Rangordnung bei Rhesusaffen. Der relative Rangstatus eines Tieres ist der bestimmende Faktor für interindividuelle Kommunikation, z.B. für Aggression oder wechselseitiges soziales Putzen. Normalerweise werden Tiere mit geringem Rangstatus von höher gestellten Grupenmitgliedern unterdrückt. Diese unterdrückten Tiere ziehen sich in eine soziale Isolierung zurück und vermeiden ängstlich jeden Sozialkontakt. Wiederholte Wirkstoffgaben in Dosen von 0,2 mg/kg p.o. bei Gruppen von 5 bzw. […] Diese Effekte werden als deutliche Anxiolyse angesehen.
Insbesondere konnten signifikante anxiolytische Effekte bei Verabreichung des Wirkstoffs in sozialen Konfliktsituationen bei Rhesusaffen im oben beschriebenen Sozialkonflikt-Test nach Jaekel festgestellt werden. […] Ebenso nahmen sie aktiv Kontakt auf und wurden zu Partnern beim Pflegen, obwohl sie vorher niemals Pflegepartner waren. Diese Effekte wurden sowohl bei Gruppen mit hohem Niveau an Sozialkontakten als auch bei Gruppen mit wenig Pflegepartnerschaften beobachtet. […] Wie zu erwarten wurde dieses ausgeprägte anxiolytische Profil bei den Standard-Beta-Rezeptoren-Blockern Oxprenolol nicht und bei Propanolol in weitaus geringerem Masse erst bei Beta-Rezeptoren blockierenden Dosierungen festgestellt. Dagegen weist das Racemat diesen Effekt in nicht ß-blockierend wirkenden Dosierungen auf.

[8] = test system: stratialer Dopamin-Rezeptoren; test: In vivo 3H-spiperone binding screening model after Bischoff; design: species or system Ratten; details: rats
Excerpt: Ferner bewirkt (+)-1-Isopropylamino-3-[o-(pyrrol-1-yl)-phenoxy]-2-propanol an Ratten Im Screening-Modell nach S. Bischoff et al., Europ.

[9] = repeated doses of 0,1-0,3 mg/kg p.o., groups of 7 monkeys
[10] = repeated doses of 0,2 mg/kg p.o., groups of 5 or 7 monkeys

With CC(C)NCC(O)COc1ccccc1-n1cccc1 (racemic) [1-Isopropylamino-3-[o-(pyrrol-1-yl)-phenoxy]-2-propanol] the “Antagonismus am präsynaptischen Serotonin-1 B-Rezeptor” value [1] was “potenter selektiver Antagonist”, the “Versuchstiere mit einem markanten Anstieg der Hebelbedienungshäufigkeit während der Schockphase” value ([2]; group of 29 rats, 20 mg/kg p.o.) was 50% and the “Anstieg der Hebelbedienungshäufigkeit bei einzelnen Tieren” value ([2]; rats, 20 mg/kg p.o., shock phase) was 300%. For the same compound, the “anxiolytische Wirkung im Geller-Test” value ([2]; rats) was “starkes Anxiolytikum”, the “Dosierung, bei der maximale Effekte (Hemmung der Hyperaktivität) erzielt werden” value [3] was 0,01-0,1 mg/kg p.o and the “cardiovaskuläre Effekte (ß-Blockade)” value ([4]; humans, low daily doses such as 2 mg and 4 mg p.o.) was “keine cardiovaskulären Effekte”. For the same compound, the “anxiolytische Effekte” value ([4]; more than 100 inpatients, daily dose 2 mg p.o. compared with daily dose 4 mg p.o.) was “signifikante, mindestens ebenso potente anxiolytische Effekte”, the “nootrope und antidepressive Eigenschaften” value ([5]; racemate, at the doses used) was “keine aussagefähigen Beobachtungen” and the “nootrope und antidepressive Eigenschaften” value ([6]; racemate, at the doses used) was “keine aussagefähigen Beobachtungen”. The “Sozialkontakte der rangniedrigsten Affen” value [7, 9] was “Zunahme der Sozialkontakte” and the “ängstliches Verhaltensmuster der Affen, die in der Rangordnung am niedrigsten eingeordnet sind” value [7, 9] was “signifikanten Reduktion des ängstlichen Verhaltensmuster”.
With CC(C)NCC(O)COc1ccccc1-n1cccc1 (single isomer, unassigned; (+)) [(+)-1-Isopropylamino-3-[o-(pyrrol-1-yl)-phenoxy]-2-propanol] the “Versuchstiere mit einem markanten Anstieg der Hebelbedienungshäufigkeit während der Schockphase” value ([2]; rats, dose from 3 mg/kg p.o.) was roughly 80%, the “anxiolytische Wirkung im Geller-Test” value ([2]; rats) was “starkes Anxiolytikum” and the “cardiovaskuläre Effekte (ß-Blockade)” value ([4]; expected for the (+)-enantiomer, not tested) was “Entsprechendes”. For the same compound, the “Erfolgsrate im Defizitbereich” value ([5]; 1 mg/kg p.o., against placebo, deficit range = delay after which discrimination success is < 75 %) was “signifikant erhöhte Erfolgsrate”, the “Motivation und Antrieb (antidepressive Eigenschaften)” value ([5]; rhesus monkeys) was “deutliche Motivations-und Antriebssteigerungen” and the “Erhöhung der Vorzögerungszeiten für den Defizitbereich” value ([5]; rhesus monkeys, average increase) was 20 Sekunden. For the same compound, the “Orientierungsleistungen (Fehlerquote; nootrope Wirkung)” value ([6]; rats) was “deutliche Verbesserung der Orientierungsleistungen”, the “Laufzeiten vom Start zum belohnten Ziel” value ([6]; rats, compared with placebo animals) was “signifikant verkürzten Laufzeiten” and the “^3H-Splperon-Bindung stratialer Dopamin-Rezeptoren” value [8] was “dosisabhängig Erhöhungen”. For the same compound, the “Sozialkontakte der rangniedrigsten Affen” value [7, 10] was “nahmen sie aktiv soziale Kontakte auf” and the “ängstliches Verhaltensmuster der Affen, die in der Rangordnung am niedrigsten eingeordnet sind” value [7, 10] was “signifikanten Reduktion”.
With C=CCOc1ccccc1OCC(O)CNC(C)C (stereo not shown) [Oxprenolol, reference compound] the “Selektivität (5-HT1B gegenüber 5-HT1A)” value [1] was “weniger selektiv” and the “Sozialkontakte von Affen mit geringer Rangordnung” value ([7]; 0,3-3,0 mg/kg p.o.) was “keine Steigerung der Sozialkontakte”.
With CC(C)NCC(O)COc1cccc2ccccc12 (stereo not shown) [Propranolol, reference compound] the “Selektivität (5-HT1B gegenüber 5-HT1A)” value [1] was “weniger selektiv”, the “Verhaltensänderung im Fussschocktest” value ([2]; rats, 20 mg/kg p.o.) was “keiner signifikanten Verhaltensänderung” and the “Dosierung, bei der maximale Effekte (Hemmung der Hyperaktivität) erzielt werden” value [3] was 0,3 mg/kg p.o. The “Sozialkontakte der Rhesusaffen mit niedrigem Rangstatus” value ([7]; 0,5-10,0 mg/kg p.o.) was “relativ wenig beeinflusst”.
